“Also recorded” adds a separate entry of the source.
Experiments:
Aβ40 [1] = biological target: T1, Aβ40 (Homo sapiens, UniProt P05067); assay: Transmission electron microscopy (TEM) of Aβ40; format: biochemical
T1 construct: Cleavage of APP results in several Aβ isoforms; The predominant species are Aβ42 and Aβ40; purchased Anaspec (Fremont, Calif., USA)

[2] = tested on: Aβ42 mediated toxicity in mouse neuroblastoma (N2a) cells; assay: Aβ42 mediated toxicity in Neuro-2a cells (MTS cell viability); format: cell-based; settings: for cell viability: 5 μM Aβ42, equimolar ratio, 72 h; for effect on Aβ42 mediated cytotoxicity: equimolar ratio, Neuro-2a cells
Experimental: Cell viability was determined using a CellTiter 96® AQueous One Solution Cell Proliferation Assay (MTS) kit (Promega), which measures the reduction of the tetrazolium compound MTS (3-(4,5-dimethylthiazol-2-yl)-5-(3-carboxymethoxyphenyl)-2-(4-sulfophenyl)-2H-tetrazolium, inner salt) to soluble formazan by mitochondrial dehydrogenase enzyme in living cells. Formazan can be measured at 490 nm according to the manufacturer's instructions.
Neuro-2a cells (ATCC® […]) were maintained in serum-containing media [Dulbecco's Modified Eagle's Medium—high glucose (DMEM, Sigma) supplemented with 10% foetal bovine serum (FBS), 4 mM L-Glutamine (Sigma), and 1% penicillin/streptomycin (Sigma)] in 5% CO2 at 37° C. Once the cells reached ˜95% confluence, they were split (using 0.25% trypsin-EDTA, Sigma, St. Louis, USA), seeded at a density of 5×10^3 cells/well in 100 μL complete medium in 96-well plates and cultured for 48 h. Thereafter, the media was removed, the cells washed with phosphate buffered saline (PBS), and 90 μL of serum-free DMEM was added to the wells. A solution (A) containing 50 μM Aβ42 in NaOH (pH 10.5) was prepared and kept on ice, and a solution (B) containing 50 μM of the oligopyridylamide compound, H2O (2.33 μL/well) and 1× and 10×PBS was prepared and kept at room temperature. The solutions were combined, vortexed and 10 μL of this solution immeadiatly added to each well. The final concentrations in the wells were: 5 μM Aβ42, 5 μM oligopyridylamide, 200 μM NaOH, 0.1×PBS and 0.5% (v/v) DMSO.
To investigate the toxic effect of the peptide alone on cell viability, solution (B) without the oligopyridylamide compound was mixed with solution (A), while the effect of the oligopyridylamide compound alone was determined by adding solution (A) without peptide to solution (B). The effect of oligopyridylamides on seed-catalyzed Aβ42 aggregation was probed by preparing an additional solution (C) containing 0.5 μM seeds. The volume contributed by solution (C) was taken into account in preparing solution (B). Solution (C) was mixed with solution (B), and the resulting mixture was then added to solution (A) shortly before addition to the wells. To study the effect of oligopyridylamides on the oligomeric states of Aβ42, solution (A) was mixed with solution (B) without inhibitor and incubated at room temperature for 1, 2 or 3 h. Subsequently, 50 μM oligopyridylamides was added to the mixture, which was then immediately added to the cells. After culturing for 72 h in 5% CO2 at 37° C., 20 μL of MTS reagent was added to each well. The MTS reagent was incubated for 2.5 h at 37° C., and absorbance of the soluble formazan product (λ=490 nm) of MTS reduction was measured on a Synergy H1MF Multi-Mode microplate-reader (BioTek, Winooski, Vt., USA), with a reference wavelength of 650 nm to subtract the background. Wells treated with a solution containing serum-free DMEM, 200 μM NaOH, 0.1×PBS and 0.5% (v/v) DMSO served as control. MTS reduction was determined from the ratio of the absorbance of the treated wells to the control wells. Each data point represents an average of four independent quadruplet-well trials.

Aβ12-28 = biological target: T2, Aβ12-28 (Homo sapiens, UniProt P05067); assay: Circular dichroism (CD) spectroscopy of Aβ12-28; format: biochemical; settings: Aβ12-28, 20% TFE, equimolar ratio
T2 construct: Aβ12-28, a well-characterized subdomain of Aβ42; purchased Anaspec (Fremont, Calif., USA)

Aβ42 = biological target: T3, Aβ42 (Homo sapiens, UniProt P05067); assay: Dot blot assay with A11 antibody; format: biochemical; settings: Aβ42, equimolar ratio, whole time course
T3 construct: Cleavage of APP results in several Aβ isoforms; The predominant species are Aβ42 and Aβ40; purchased Anaspec (Fremont, Calif., USA)
T3 sequence (P05067 672-713 limits assumed): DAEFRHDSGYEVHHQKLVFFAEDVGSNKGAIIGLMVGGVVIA
Experimental: Samples of Aβ42 at concentrations from 2 μM to 5 μM were incubated at various time intervals in the absence and presence of the compounds of the invention at an equimolar ratio (see FIG. 4j). The samples were then applied to a nitrocellulose membrane and dried at room temperature for 1 h or overnight at 4° C. The membranes were then blocked with 5% nonfat milk in Tris buffer (20 mM Tris, pH 7.4) for 1 h at room temperature. The nitrocellulose membranes were then washed (×3) with 20 mM Tris, pH 7.4 supplemented with 0.01% Tween-20 (TBST) and incubated with polyclonal A11 antibody (1/1000 dilution in 5% nonfat milk in TBST, Life Technologies Corp., Grand Island, N.Y., USA) overnight at 4° C. Samples were then washed (×3) with TBST buffer and incubated with horseradish peroxidase (HRP) conjugated anti-rabbit IgG (1/500 dilution in 5% nonfat free milk in TBST) at r.t. for 1 h. The dot blots were then washed with TBST buffer (×3), developed using the ECL reagent kit (Amersham, Piscataway, N.J., USA), and imaged using a Typhoon FLA 9000 instrument (GE Healthcare Life Sciences, Pittsburgh, Pa., USA) using chemiluminescence settings. A similar experiment was repeated using 6E10 antibody ( 1/1000 dilution in 5% nonfat free milk in TBST, Biolegend, San Diego, Calif., USA) for comparison.

Aβ40 [3] = biological target: T1, Aβ40; assay: Circular dichroism (CD) spectroscopy of Aβ40; format: biochemical; settings: Aβ40, equimolar ratio
Experimental: A second set of compounds was identified as potent inhibitors of Aβ aggregation. In contrast to ADH-41, they are negatively charged. […] The absorbance increased gradually from 0 to 6 h indicating an increase in the amount of soluble oligomers of Aβ42. […] A time-dependent increase in the amount of the A11-sensitive Aβ42 oligomeric structures was reflected in the progressive enhancement in the chemiluminescence intensity of the dots, which reached a maximum intensity around 6 h (FIG. 27g). The intensity decreased after 12 h, due to formation of fibers that are not sensitive to the A11 antibody. […] The far UV-CD spectrum of a sample of 20 μM Aβ40 transitioned from that of a random coil to a β-sheet conformation over 24 h (FIG. 27h).
A freshly prepared stock solution of Aβ42 (500 μM) was diluted to 15 μM in phosphate buffer for CD measurements. The spectra of Aβ42 in the absence and presence of the compounds of the invention were recorded at 0.5 nm intervals from 190 to 260 nm with an averaging time of 10 sec. and an average of three repeats on a Aviv Stopped Flow CD Spectropolarimeter (Model 202SF).

[4] = compound added to 5 μM Aβ42 after 1 h from start of amyloid reaction, Aβ42 alone 46%
[5] = compound added to 5 μM Aβ42 after 2 h from start of amyloid reaction, Aβ42 alone 57%
[6] = compound added to 5 μM Aβ42 after 3 h from start of amyloid reaction, Aβ42 alone 62%

T1 sequence (P05067 672-711 limits assumed): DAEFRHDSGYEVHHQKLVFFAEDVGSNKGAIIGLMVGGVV

fiber formation of Aβ40 seen by TEM (Aβ40 [1]; Aβ40 incubated with ADH-41, after 5 days) | aggregates of Aβ40 seen by TEM (Aβ40 [1]; equimolar ratio) | Aβ40 species seen by TEM (Aβ40 [1]; substoichiometric ratio 1:0.1 (Aβ40:ADH-41)) | conformation of Aβ12-28 (far UV-CD) (Aβ12-28) | A11 signal intensity of the dots (Aβ42) | β-sheet formation of Aβ40 (far UV-CD) (Aβ40 [3]) | conformation of Aβ40 (far UV-CD) (Aβ40 [3]; stable after 48 h) | Structure (SMILES) | cell viability [2] | rank order for the antagonist activity ([2]; Aβ42 mediated cytotoxicity and aggregation, 5 μM, 1:1 (FIG. 26a)) | cell viability, preformed Aβ42 oligomers [2, 4] [%] | cell viability, preformed Aβ42 oligomers [2, 5] [%] | cell viability, preformed Aβ42 oligomers [2, 6] [%] | effect on Aβ42 mediated cytotoxicity [2]
scant evidence of fiber formation | No aggregates were visible | short protofibrils | strong α-helical conformation | significantly weaker | – | – | COC(=O)c1ccc(NC(=O)c2ccc(NC(=O)c3ccc([N+](=O)[O-])c(OCc4ccccc4)n3)c(OCCCN)n2)c(OCCCN)n1 [ADH-41] | 98±2% | ADH41>ADH46>ADM-40≥ADM-45A | 72 | 68 | 67 | completely inhibited; also recorded: effective at rescuing cells; also recorded: equally effective; also recorded: completely rescues
– | – | – | – | weak intensities | no β-sheet formation was observed | adopts an α-helical conformation | COC(=O)c1ccc(NC(=O)c2ccc(NC(=O)c3ccc(NC(=O)c4ccc([N+](=O)[O-])c(OCC(C)C)n4)c(OCc4ccccc4)n3)c(OCC(=O)O)n2)c(OCC(=O)O)n1 [ADH-31] | 97%±1% | – | 90 | 89 | 95 | effective at rescuing cells

Source: US10723716B2, “Alpha-helix mimetics as modulators of Abeta self-assembly” (New York University, priority 2016, dated 2020)
